The results in this text go back to ChEMBL document CHEMBL1201862, “PubChem BioAssay data set” (2004).

Activity calls are given as the source filed them.

As a reminder, the IC50 is the concentration that gives 50% inhibition. As a reminder, the EC50 is the concentration giving half of the maximal effect. Broadly, the AC50 is the concentration giving half of the maximal activity seen. As a reminder, the Ki is a measure of affinity in units of concentration, obtained from inhibition or displacement. The pKi is −log10 of the Ki, conventionally taken in molar units. For orientation: CC50 means the concentration giving 50% cytotoxicity.

One test has as its target Hexokinase HKDC1 (Homo sapiens, UniProt Q2TB90). Nature of the test: inhibition of HKDC1 glucose phosphorylation – biochemical, W721R variant, dose response (AID 504729). It is filed as functional.
The next test has as its target T1, Insulin-degrading enzyme (Homo sapiens, UniProt P14735).
T1 sequence (P14735 whole entry): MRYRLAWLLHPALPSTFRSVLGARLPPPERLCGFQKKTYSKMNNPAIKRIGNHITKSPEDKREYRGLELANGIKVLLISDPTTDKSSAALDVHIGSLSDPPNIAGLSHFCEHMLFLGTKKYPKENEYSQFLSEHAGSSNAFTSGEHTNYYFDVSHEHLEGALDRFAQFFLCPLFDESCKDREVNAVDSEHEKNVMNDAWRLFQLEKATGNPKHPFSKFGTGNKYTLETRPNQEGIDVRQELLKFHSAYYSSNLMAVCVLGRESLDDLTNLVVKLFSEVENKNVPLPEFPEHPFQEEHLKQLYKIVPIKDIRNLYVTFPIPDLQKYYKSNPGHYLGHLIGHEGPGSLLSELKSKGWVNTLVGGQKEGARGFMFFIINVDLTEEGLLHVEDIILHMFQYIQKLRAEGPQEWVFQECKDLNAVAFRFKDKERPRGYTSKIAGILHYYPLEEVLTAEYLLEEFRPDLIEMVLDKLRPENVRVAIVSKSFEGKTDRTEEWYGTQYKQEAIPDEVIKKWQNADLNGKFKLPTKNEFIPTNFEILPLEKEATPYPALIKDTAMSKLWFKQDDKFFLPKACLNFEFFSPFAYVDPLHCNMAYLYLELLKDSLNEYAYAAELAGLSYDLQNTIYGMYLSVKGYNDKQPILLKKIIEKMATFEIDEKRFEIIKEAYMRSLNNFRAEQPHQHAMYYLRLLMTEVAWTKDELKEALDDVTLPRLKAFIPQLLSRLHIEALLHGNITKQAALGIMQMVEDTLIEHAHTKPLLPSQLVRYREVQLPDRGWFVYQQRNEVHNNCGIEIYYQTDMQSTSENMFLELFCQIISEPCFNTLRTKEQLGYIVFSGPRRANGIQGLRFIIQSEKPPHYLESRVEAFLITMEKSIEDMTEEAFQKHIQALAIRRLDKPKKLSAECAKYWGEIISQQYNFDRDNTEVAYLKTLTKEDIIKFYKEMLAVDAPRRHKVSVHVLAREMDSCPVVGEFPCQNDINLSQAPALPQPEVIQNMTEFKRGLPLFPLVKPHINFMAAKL
Description: cellular IDE activation of Abeta substrate cleavage – fluorescence polarization, HEK cells, dose response (AID 588439). In kind it is functional, cell-based. In general terms: Polarisation of emitted light reports the rotation of a fluorescent probe.

The next test deals with BJ. Description: cells. In kind it is functional, cell-based. Particulars: Homo sapiens.
The nature of test [1]: activation of miR-122 Renilla sensor silencing – cell-based, Huh7 psiCHECK-miR122, Renilla luciferase, cherry-picked, dose response (AID 651956).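 Further: huh7 hepatoma cells stably carrying a psiCHECK-2 miR-122 sensor plasmid; renilla luciferase signal reporting endogenous miR-122 activity after 48 h compound exposure.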 It is filed as functional.
The target of test [2] is T2, DNA repair protein RAD52 homolog (Homo sapiens, UniProt P43351).
T2 sequence (P43351 whole entry): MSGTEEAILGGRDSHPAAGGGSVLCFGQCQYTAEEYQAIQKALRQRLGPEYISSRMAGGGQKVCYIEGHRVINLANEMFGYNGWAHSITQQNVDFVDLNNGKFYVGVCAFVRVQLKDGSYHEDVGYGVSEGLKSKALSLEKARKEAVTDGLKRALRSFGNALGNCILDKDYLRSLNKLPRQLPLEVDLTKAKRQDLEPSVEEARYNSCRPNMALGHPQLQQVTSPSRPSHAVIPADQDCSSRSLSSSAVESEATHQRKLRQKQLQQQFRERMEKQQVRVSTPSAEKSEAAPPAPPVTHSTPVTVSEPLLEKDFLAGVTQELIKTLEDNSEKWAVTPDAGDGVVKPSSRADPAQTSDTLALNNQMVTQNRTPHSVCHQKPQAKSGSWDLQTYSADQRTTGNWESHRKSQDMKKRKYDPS
In kind it is functional, biochemical.

Test [3] addresses Calcium/calmodulin-dependent protein kinase type II subunit delta (Homo sapiens, UniProt Q13557). It is filed as functional.
Test [4] concerns the target Mitogen-activated protein kinase kinase kinase kinase 5 (Homo sapiens, UniProt Q9Y4K4). It is filed as functional.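 Further: measured as one member of a kinome-spanning kinase panel.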
Test [5] has as its target Hepatocyte growth factor receptor (Homo sapiens, UniProt P08581). In kind it is functional.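 Further: kinase panel profiling across the kinome, with MET as the panel member.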
Test [6] deals with T3, Sentrin-specific protease 6 (Homo sapiens, UniProt Q9GZR1).
T3 sequence (Q9GZR1 whole entry): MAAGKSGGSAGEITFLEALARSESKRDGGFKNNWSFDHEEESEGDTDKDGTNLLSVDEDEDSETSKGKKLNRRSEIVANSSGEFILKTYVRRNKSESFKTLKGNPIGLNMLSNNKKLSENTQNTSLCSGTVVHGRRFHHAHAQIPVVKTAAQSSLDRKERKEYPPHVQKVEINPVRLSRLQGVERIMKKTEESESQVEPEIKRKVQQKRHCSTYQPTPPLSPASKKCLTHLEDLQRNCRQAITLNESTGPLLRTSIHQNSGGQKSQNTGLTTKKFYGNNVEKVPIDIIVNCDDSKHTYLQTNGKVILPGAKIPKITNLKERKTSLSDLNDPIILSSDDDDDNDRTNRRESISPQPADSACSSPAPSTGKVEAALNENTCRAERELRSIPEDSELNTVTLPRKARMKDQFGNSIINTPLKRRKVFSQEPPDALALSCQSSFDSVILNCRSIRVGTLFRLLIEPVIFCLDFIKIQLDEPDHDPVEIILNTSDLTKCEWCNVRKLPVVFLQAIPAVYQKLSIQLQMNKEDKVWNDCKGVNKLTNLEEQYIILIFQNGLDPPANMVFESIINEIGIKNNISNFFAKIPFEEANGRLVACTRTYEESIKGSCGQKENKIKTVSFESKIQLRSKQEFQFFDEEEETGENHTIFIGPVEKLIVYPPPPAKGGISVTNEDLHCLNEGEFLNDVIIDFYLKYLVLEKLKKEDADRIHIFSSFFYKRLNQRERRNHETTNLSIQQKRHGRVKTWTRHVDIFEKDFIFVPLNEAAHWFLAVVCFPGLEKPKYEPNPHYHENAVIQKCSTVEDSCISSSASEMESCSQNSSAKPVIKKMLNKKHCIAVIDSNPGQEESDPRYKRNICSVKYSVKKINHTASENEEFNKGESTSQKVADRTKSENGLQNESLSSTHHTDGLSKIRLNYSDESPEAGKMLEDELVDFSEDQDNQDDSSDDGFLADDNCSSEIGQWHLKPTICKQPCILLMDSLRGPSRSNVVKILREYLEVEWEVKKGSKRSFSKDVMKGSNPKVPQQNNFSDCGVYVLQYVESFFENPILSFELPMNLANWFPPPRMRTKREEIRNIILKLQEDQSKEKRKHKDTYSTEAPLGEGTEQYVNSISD
It is filed as functional.

Test [7] is described as follows: Vero E6 cell cytotoxicity, dose response, cytotoxicity control for non-replicating M. tuberculosis project, secondary assay (AID 492998). It is filed as functional, VeroE6. The settings on record: Vero C1008.

Chain of Calcium/calmodulin-dependent protein kinase type II subunit delta (Q13557 whole entry): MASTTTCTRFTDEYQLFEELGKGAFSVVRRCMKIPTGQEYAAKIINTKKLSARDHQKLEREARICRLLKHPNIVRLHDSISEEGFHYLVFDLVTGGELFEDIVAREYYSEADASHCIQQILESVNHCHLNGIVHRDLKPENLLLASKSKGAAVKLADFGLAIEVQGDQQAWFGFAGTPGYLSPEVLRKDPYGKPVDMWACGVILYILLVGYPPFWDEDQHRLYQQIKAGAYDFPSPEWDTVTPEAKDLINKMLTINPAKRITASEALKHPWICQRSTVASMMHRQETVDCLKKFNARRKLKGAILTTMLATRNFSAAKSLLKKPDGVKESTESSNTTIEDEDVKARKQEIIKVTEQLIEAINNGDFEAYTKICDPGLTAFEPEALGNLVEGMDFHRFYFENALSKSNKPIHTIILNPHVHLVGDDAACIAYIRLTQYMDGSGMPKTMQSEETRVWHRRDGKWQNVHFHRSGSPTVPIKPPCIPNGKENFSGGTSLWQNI
Chain of Mitogen-activated protein kinase kinase kinase kinase 5 (Q9Y4K4 whole entry): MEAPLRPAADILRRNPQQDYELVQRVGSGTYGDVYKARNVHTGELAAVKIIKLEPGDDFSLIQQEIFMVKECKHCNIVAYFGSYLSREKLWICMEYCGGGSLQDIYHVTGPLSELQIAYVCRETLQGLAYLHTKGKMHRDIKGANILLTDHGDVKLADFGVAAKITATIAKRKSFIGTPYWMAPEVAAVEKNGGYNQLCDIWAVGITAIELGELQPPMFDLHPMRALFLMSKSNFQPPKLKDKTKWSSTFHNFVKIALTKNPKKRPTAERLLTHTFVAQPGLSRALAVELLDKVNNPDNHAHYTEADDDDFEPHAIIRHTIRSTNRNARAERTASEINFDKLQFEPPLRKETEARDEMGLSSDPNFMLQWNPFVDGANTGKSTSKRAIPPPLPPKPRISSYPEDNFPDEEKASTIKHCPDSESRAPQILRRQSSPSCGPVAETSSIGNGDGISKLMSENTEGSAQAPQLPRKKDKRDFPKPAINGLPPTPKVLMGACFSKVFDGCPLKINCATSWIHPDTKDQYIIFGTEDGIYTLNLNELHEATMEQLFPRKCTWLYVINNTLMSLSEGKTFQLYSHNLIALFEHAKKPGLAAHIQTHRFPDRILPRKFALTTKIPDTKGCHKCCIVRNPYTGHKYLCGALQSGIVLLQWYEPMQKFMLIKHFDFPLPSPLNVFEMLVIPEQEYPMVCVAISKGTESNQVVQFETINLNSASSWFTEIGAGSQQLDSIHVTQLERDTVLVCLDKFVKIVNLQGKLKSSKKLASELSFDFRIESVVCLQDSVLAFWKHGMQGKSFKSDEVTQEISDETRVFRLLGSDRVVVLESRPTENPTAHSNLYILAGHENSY
Chain of Hexokinase HKDC1 (Q2TB90 whole entry): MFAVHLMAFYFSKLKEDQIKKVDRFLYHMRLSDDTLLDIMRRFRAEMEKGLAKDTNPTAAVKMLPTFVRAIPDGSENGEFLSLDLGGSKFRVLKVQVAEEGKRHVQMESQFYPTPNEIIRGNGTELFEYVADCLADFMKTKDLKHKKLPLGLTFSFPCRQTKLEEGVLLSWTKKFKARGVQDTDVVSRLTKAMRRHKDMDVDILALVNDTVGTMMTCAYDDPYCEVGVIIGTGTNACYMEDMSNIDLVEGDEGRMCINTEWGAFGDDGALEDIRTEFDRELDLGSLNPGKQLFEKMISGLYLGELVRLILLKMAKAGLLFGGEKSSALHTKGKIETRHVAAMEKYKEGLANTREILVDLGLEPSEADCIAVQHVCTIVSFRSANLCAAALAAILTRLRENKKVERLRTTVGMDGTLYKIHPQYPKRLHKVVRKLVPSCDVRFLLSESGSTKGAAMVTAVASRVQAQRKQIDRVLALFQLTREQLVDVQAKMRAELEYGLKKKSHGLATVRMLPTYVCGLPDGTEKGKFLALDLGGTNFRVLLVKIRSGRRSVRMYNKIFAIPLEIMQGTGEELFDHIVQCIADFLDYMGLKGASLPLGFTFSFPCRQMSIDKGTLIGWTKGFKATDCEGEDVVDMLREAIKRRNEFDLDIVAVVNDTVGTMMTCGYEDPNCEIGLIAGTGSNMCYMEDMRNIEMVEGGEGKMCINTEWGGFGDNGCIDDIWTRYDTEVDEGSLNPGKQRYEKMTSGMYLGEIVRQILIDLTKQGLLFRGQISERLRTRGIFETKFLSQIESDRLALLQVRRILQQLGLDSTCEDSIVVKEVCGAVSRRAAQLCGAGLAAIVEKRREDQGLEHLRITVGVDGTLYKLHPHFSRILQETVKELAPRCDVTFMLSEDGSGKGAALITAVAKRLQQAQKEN
Chain of Hepatocyte growth factor receptor (P08581 whole entry): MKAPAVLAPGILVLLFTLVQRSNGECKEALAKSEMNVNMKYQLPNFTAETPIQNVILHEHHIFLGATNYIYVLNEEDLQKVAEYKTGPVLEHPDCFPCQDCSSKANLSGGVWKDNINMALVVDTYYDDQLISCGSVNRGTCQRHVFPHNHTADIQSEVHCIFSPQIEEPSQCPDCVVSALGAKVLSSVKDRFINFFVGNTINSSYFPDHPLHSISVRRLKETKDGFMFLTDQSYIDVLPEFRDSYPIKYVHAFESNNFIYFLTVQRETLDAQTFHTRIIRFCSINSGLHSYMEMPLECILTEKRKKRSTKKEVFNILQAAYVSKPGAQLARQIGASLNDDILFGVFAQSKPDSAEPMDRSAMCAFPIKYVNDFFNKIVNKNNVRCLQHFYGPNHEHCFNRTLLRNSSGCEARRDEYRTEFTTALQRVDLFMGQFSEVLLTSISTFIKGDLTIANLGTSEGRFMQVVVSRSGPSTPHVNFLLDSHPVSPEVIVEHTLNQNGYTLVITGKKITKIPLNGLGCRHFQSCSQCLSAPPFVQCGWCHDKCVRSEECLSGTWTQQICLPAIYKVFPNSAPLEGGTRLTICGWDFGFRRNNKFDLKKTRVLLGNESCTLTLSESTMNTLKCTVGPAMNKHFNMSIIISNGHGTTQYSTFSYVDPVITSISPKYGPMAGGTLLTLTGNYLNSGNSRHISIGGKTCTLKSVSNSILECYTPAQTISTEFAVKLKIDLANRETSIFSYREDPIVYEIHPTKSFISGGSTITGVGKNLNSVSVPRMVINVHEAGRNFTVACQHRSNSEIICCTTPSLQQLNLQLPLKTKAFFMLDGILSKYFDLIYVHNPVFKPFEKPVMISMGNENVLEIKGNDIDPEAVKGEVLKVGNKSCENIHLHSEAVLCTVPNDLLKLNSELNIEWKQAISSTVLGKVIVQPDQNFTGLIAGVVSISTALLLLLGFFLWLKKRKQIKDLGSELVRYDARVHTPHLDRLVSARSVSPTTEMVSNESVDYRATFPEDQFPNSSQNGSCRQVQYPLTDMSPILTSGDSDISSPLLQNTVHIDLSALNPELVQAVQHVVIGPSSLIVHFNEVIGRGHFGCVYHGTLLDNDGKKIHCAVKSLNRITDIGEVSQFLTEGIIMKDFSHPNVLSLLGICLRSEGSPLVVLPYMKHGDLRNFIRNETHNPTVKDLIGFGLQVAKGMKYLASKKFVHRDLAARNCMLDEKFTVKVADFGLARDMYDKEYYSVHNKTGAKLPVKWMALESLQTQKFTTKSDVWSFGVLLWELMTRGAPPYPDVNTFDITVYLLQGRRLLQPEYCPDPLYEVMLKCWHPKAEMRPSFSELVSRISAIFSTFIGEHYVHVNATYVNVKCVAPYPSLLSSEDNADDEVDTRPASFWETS

Take `CCOC(=O)c1ccc(NC2=CC(=O)C(=O)c3ccccc32)cc1`: at Hexokinase HKDC1, the IC50 was 43.9 µM (inactive).

Regarding `OC(CNCCC1C=Nc2ccccc21)Cn1c2ccc(Cl)cc2c2cc(Cl)ccc21` (configuration not stated), the EC50 at Insulin-degrading enzyme is > 54.7 µM (inactive); in the test with BJ it was > 75 µM (not active). The AC50 in test [1] is 12.8 µM (active).

For `CCCCCCCCCCCCCCCC[N+](C)(C)C`, in [2], the AC50 is 8.73 µM (active).

Consider `NC1CCC(Nc2nc(Cl)cc(-c3c[nH]c4ncccc34)n2)CC1` (configuration not stated), for which, in test [3], the Ki is 0.251 µM (active) and the pKi was found to be 6.6. In addition, in test [4], the Ki is 0.0501 µM (active) and the pKi is on record as 7.3.

Consider `O=C(O)C1CN(Cc2ccc(OCc3ccccc3)cc2Cl)C1`, for which the Ki in test [5] was > 2.51 µM (inactive).

As for `COc1ccc(C(=O)c2nccc3cc(OC)c(OC)cc23)cc1OC`, the IC50 in test [6] is 0.805 µM (active).

For the compound `Cc1ccccc1-c1cc2c(nn1)-c1ccccc1C2=O`, the CC50 in [7] was 9.21 µM (active).
